Test results from ChEMBL document CHEMBL5257069, “Structure-activity relationship analysis of activity-based probes targeting HTRA family of serine proteases” (Bioorg Med Chem Lett, 2023).
Calls of active or inactive are those of the source. The calls are words filed in the database; no cut-off is given here.

Tests used:
[1] = molecular target: T1, Periplasmic serine endoprotease DegP (Escherichia coli (strain K12)) (UniProt P0C0V0); test: Binding affinity to recombinant Escherichia coli DegP assessed as increase in fluorescence using H2-OPT as substrate at 1 uM by SDS-PAGE based gel fluorescence scanning analysis
T1 sequence (whole entry): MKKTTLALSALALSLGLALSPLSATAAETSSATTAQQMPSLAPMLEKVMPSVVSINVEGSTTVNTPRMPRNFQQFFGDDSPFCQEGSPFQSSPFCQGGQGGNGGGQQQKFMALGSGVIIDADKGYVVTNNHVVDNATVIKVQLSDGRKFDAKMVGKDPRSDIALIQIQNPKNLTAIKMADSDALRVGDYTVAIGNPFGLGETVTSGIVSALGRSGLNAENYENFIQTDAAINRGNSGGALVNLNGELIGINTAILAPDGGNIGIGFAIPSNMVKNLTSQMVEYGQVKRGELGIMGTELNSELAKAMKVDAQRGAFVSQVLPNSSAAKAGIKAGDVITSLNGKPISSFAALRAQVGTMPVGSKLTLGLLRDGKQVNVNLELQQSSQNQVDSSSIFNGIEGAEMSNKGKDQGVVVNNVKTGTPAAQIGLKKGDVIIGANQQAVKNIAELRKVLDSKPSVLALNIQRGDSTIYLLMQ

[2] = molecular target: T2, Serine protease HTRA1 (Homo sapiens, UniProt Q92743); test: Inhibition of recombinant human HTRA1 using H2-OPT as substrate assessed as increase in fluorescence and measured for 2 hrs by fluorescent plate reader analysis
T2 sequence (Q92743 whole entry): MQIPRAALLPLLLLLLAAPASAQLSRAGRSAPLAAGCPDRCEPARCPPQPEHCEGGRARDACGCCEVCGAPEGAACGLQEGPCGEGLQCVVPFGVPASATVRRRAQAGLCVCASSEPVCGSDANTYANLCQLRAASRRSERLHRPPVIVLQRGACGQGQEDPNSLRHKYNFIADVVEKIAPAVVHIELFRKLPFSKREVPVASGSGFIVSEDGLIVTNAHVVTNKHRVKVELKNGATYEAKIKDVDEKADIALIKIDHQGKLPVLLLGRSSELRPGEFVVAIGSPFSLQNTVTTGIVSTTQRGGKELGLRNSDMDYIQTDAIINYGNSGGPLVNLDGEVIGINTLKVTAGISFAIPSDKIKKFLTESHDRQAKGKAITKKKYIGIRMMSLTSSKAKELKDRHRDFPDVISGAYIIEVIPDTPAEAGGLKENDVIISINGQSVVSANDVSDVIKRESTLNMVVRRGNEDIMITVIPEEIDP

[3] = molecular target: T3, Serine protease HTRA2, mitochondrial (Homo sapiens, UniProt O43464); test: Inhibition of recombinant human HTRA2 using H2-OPT as substrate assessed as increase in fluorescence and measured for 2 hrs by fluorescent plate reader analysis
T3 sequence (O43464 whole entry): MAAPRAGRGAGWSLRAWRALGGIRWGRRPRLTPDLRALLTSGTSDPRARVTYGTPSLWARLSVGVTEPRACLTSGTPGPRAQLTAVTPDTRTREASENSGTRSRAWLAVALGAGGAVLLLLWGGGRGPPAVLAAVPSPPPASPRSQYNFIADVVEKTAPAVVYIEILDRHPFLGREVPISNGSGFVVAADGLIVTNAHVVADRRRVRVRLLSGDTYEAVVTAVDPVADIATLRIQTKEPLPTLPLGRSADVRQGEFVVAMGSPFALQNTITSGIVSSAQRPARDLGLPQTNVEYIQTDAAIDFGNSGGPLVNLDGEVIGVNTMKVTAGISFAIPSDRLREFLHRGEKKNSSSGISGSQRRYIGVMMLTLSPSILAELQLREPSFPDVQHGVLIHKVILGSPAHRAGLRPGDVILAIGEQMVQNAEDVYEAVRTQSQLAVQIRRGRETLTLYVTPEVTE

[4] = molecular target: Albumin (Bos taurus, UniProt P02769); test: Binding affinity to bovine serum albumin in human U-87 MG cell culture media assessed as appearance of fluorescent bands at 5 uM by SDS-PAGE based In-gel fluorescence analysis; details: cattle
Chain of Albumin (Bos taurus, UniProt P02769) (P02769 whole entry): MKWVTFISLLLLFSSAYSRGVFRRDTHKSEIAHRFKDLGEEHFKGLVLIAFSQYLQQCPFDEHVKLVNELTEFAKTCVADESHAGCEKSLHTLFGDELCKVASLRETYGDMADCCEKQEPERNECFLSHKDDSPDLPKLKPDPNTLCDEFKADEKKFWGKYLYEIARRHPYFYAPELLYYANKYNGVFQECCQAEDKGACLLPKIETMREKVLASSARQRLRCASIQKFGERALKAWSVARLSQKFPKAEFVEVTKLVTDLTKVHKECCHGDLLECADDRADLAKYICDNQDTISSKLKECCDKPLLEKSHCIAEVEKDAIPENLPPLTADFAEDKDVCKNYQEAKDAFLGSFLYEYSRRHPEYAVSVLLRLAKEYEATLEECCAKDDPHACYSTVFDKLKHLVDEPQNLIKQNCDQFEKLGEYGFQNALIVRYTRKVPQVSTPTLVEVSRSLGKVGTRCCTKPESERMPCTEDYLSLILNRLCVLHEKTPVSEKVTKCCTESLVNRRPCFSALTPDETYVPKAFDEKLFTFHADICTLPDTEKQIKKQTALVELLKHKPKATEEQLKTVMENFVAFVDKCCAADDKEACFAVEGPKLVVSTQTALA

[5] = molecular target: T4, Serine protease HTRA2, mitochondrial (Homo sapiens) (UniProt O43464); test: Binding affinity to recombinant human HTRA2 assessed as increase in fluorescence using H2-OPT as substrate at 1 uM by SDS-PAGE based gel fluorescence scanning analysis
T4 sequence (whole entry): T3 sequence (O43464 whole entry)

[6] = molecular target: T5, Neutrophil elastase (Homo sapiens) (UniProt P08246); test: Binding affinity to recombinant human neutrophil elastase assessed as increase in fluorescence using H2-OPT as substrate at 1 uM by SDS-PAGE based gel fluorescence scanning analysis; assay type: single protein
T5 sequence (whole entry): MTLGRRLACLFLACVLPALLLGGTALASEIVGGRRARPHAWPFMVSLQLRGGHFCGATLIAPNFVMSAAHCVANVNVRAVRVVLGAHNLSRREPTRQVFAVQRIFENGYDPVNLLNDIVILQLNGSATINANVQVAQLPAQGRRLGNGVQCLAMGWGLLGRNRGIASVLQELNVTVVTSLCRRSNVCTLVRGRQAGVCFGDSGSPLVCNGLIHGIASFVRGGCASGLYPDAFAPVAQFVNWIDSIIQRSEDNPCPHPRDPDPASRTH

[7] = molecular target: Chymotrypsin (Homo sapiens) (UniProt Q99895+P17538+P40313+Q6GPI1); test: Binding affinity to recombinant human chymotrypsin assessed as increase in fluorescence using H2-OPT as substrate at 1 uM by SDS-PAGE based gel fluorescence scanning analysis; assay type: protein assay
[8] = molecular target: Trypsin (Homo sapiens) (UniProt P07477+P07478+P35030); test: Binding affinity to recombinant human trypsin assessed as increase in fluorescence using H2-OPT as substrate at 1 uM by SDS-PAGE based gel fluorescence scanning analysis; assay type: protein assay
[9] = molecular target: T1, Periplasmic serine endoprotease DegP (Escherichia coli (strain K12)); test: Binding affinity to Escherichia coli DegP assessed as appearance of fluorescent bands at 10 uM incubated for 2 hrs by SDS-PAGE based gel fluorescence scanning analysis
[10] = molecular target: T1, Periplasmic serine endoprotease DegP (Escherichia coli (strain K12)); test: Binding affinity to Escherichia coli DegP assessed as appearance of fluorescent bands at 1 to 50 uM incubated for 1 hrs by SDS-PAGE based gel fluorescence scanning analysis; details: dose 1-50 µM
[11] = molecular target: T4, Serine protease HTRA2, mitochondrial (Homo sapiens); test: Inhibition of recombinant human HTRA2 using H2-OPT as substrate assessed as increase in fluorescence at 1 uM and measured for 2 hrs by fluorescent plate reader analysis
[12] = molecular target: T2, Serine protease HTRA1; test: Inhibition of recombinant human HTRA1 using H2-OPT as substrate assessed as increase in fluorescence at 1 uM and measured for 2 hrs by fluorescent plate reader analysis
[13] = molecular target: T2, Serine protease HTRA1; test: Binding affinity to human HTRA1 in human U-87 MG cells assessed as appearance of fluorescent bands at 5 uM by SDS-PAGE based In-gel fluorescence analysis; assay type: cell-based
[14] = molecular target: T2, Serine protease HTRA1; test: Binding affinity to recombinant human HTRA1 in human serum assessed as appearance of fluorescent bands at 2 uM by In-gel fluorescence analysis; assay type: cell-free
[15] = molecular target: Albumin (Homo sapiens, UniProt P02768); test: Binding affinity to human serum albumin assessed as appearance of fluorescent bands at 2 uM by SDS-PAGE based In-gel fluorescence analysis
Chain of Albumin (Homo sapiens, UniProt P02768) (P02768 whole entry): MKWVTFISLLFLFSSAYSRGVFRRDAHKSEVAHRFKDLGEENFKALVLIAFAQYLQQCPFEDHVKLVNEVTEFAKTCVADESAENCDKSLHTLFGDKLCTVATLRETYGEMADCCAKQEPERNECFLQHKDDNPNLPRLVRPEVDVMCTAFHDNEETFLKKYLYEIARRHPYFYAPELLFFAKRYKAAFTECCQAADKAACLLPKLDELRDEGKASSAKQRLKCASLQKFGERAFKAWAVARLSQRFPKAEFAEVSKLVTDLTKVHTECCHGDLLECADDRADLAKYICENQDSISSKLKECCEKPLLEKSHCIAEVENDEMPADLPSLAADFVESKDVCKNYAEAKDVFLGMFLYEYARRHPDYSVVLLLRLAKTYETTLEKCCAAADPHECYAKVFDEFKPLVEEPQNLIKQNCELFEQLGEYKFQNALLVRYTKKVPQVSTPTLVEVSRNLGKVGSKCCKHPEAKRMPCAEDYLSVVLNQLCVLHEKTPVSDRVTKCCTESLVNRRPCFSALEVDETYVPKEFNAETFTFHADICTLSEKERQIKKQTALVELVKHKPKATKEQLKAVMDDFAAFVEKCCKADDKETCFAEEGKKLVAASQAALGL

[16] = molecular target: T2, Serine protease HTRA1; test: Binding affinity to human HTRA1 in Amyloid-beta treated human U-87 MG cells assessed as appearance of fluorescent bands at 5 uM by SDS-PAGE based In-gel fluorescence analysis; assay type: cell-based

Row | SMILES | Activity [1] | IC50 [3] [µM] | Activity [5] | Activity [6] | Activity [7] | further results
1 | CC[C@H](NC(=O)[C@H](CCCCN)NC(=O)[C@H](Cc1ccccc1)NC(=O)CCCCCNC(=O)c1ccc(C(=O)O)c(-c2c3ccc(=O)cc-3oc3cc(O)ccc23)c1)C(=O)N[C@@H](CC(C)C)P(=O)(Oc1ccccc1)Oc1ccccc1 | inactive | – | – | – | – | –
2 | O=C1C(=Cc2ccc(-c3ccccc3[N+](=O)[O-])o2)C(=O)N(c2ccccc2)C(=S)N1c1ccccc1 | – | 18 | – | – | – | IC50 [2]: > 50 µM
3 | CC(C)C[C@H](NC(=O)CCCCCNC(=O)c1ccc(C(=O)O)c(-c2c3ccc(=O)cc-3oc3cc(O)ccc23)c1)C(=O)N[C@@H](Cc1ccccc1)C(=O)N[C@@H](CC1CC1)C(=O)N[C@@H](C(C)C)P(=O)(Oc1ccccc1)Oc1ccccc1 | inactive | 5.2 | Active | – | – | Activity [4]: Active
4 | CC(C)[C@H](NC(=O)C1(NC(=O)[C@H](CCCCN)NC(=O)[C@H](Cc2ccccc2)NC(=O)CCCCCNC(=O)c2ccc(C(=O)O)c(-c3c4ccc(=O)cc-4oc4cc(O)ccc34)c2)CC1)P(=O)(Oc1ccccc1)Oc1ccccc1 | inactive | – | inactive | inactive | inactive | Activity [8]: inactive
5 | CC(C)C[C@H](NC(=O)CCCCCNC(=O)c1ccc(C(=O)O)c(-c2c3ccc(=O)cc-3oc3cc(O)ccc23)c1)C(=O)N[C@@H](Cc1ccccc1)C(=O)N[C@@H](CC(C)(C)C)C(=O)N[C@@H](C(C)C)P(=O)(Oc1ccccc1)Oc1ccccc1 | inactive | 8.1 | Active | – | – | –
6 | CC(C)C[C@H](NC(=O)[C@H](CCCCN)NC(=O)[C@H](Cc1ccc2ccccc2c1)NC(=O)CCCCCNC(=O)c1ccc(C(=O)O)c(-c2c3ccc(=O)cc-3oc3cc(O)ccc23)c1)C(=O)N[C@@H](CC(C)C)P(=O)(Oc1ccccc1)Oc1ccccc1 | – | – | Active | Active | Active | –
7 | CC(C)C[C@H](NC(=O)CCCCCNC(=O)c1ccc(C(=O)O)c(-c2c3ccc(=O)cc-3oc3cc(O)ccc23)c1)C(=O)N[C@@H](Cc1ccccc1)C(=O)NC1(C(=O)N[C@@H](C(C)C)P(=O)(Oc2ccccc2)Oc2ccccc2)CC1 | inactive | – | inactive | inactive | inactive | Activity [8]: inactive
8 | CC[C@H](NC(=O)[C@H](CCCCN)NC(=O)[C@H](Cc1ccccc1)NC(=O)CCCCCNC(=O)c1ccc(C(=O)O)c(-c2c3ccc(=O)cc-3oc3cc(O)ccc23)c1)C(=O)N[C@@H](C(C)C)P(=O)(Oc1ccccc1)Oc1ccccc1 | Active | 27 | – | – | – | Activity [9]: Active; Activity [10]: Dose-Dependent Effect
9 | NCCc1ccc(S(=O)(=O)F)cc1 | – | > 1000 | – | – | – | IC50 [2]: > 1000 µM; inhibition [11]: 20%; inhibition [12]: 20%
10 | CC(C)C[C@H](NC(=O)CCCCCNC(=O)c1ccc(C(=O)O)c(-c2c3ccc(=O)cc-3oc3cc(O)ccc23)c1)C(=O)N[C@@H](Cc1ccc2ccccc2c1)C(=O)N[C@@H](CC(C)C)C(=O)N[C@@H](C(C)C)P(=O)(Oc1ccccc1)Oc1ccccc1 | inactive | 5.4 | Active | Active | Active | –
11 | CC(C)[C@H](NC(=O)[C@H](CC1CC1)NC(=O)[C@H](CCCCN)NC(=O)[C@H](Cc1ccccc1)NC(=O)CCCCCNC(=O)c1ccc(C(=O)O)c(-c2c3ccc(=O)cc-3oc3cc(O)ccc23)c1)P(=O)(Oc1ccccc1)Oc1ccccc1 | – | 8.3 | Active | – | – | Activity [13]: Active; IC50 [2]: 6.3 µM; Activity [14]: Active; Activity [15]: Not Active; Activity [16]: Active
12 | CC(C)C[C@H](NC(=O)CCCCCNC(=O)c1ccc(C(=O)O)c(-c2c3ccc(=O)cc-3oc3cc(O)ccc23)c1)C(=O)N[C@@H](Cc1ccccc1)C(=O)N[C@@H](CC(C)C)C(=O)N[C@@H](C(C)C)P(=O)(Oc1ccccc1)Oc1ccccc1 | – | 7.8 | – | – | – | Activity [13]: Active; IC50 [2]: 2 µM; Activity [14]: Active; Activity [15]: Not Active
13 | CC(C)[C@H](NC(=O)[C@H](CC(C)(C)C)NC(=O)[C@H](CCCCN)NC(=O)[C@H](Cc1ccccc1)NC(=O)CCCCCNC(=O)c1ccc(C(=O)O)c(-c2c3ccc(=O)cc-3oc3cc(O)ccc23)c1)P(=O)(Oc1ccccc1)Oc1ccccc1 | inactive | – | – | – | – | –
14 | CC(C)C[C@H](NC(=O)[C@H](CCCCN)NC(=O)[C@H](Cc1ccccc1)NC(=O)CCCCCNC(=O)c1ccc(C(=O)O)c(-c2c3ccc(=O)cc-3oc3cc(O)ccc23)c1)C(=O)N[C@@H](C(C)C)P(=O)(Oc1ccccc1)Oc1ccccc1 | Active | 24 | – | – | – | –
15 | CC(C)C[C@H](NC(=O)[C@H](CCCCN)NC(=O)[C@H](Cc1ccc2ccccc2c1)NC(=O)CCCCCNC(=O)c1ccc(C(=O)O)c(-c2c3ccc(=O)cc-3oc3cc(O)ccc23)c1)C(=O)N[C@@H](C(C)C)P(=O)(Oc1ccccc1)Oc1ccccc1 | – | 12 | Active | Active | Active | –
16 | CC(C)C[C@H](NC(=O)C1(NC(=O)[C@H](CCCCN)NC(=O)[C@H](Cc2ccccc2)NC(=O)CCCCCNC(=O)c2ccc(C(=O)O)c(-c3c4ccc(=O)cc-4oc4cc(O)ccc34)c2)CC1)P(=O)(Oc1ccccc1)Oc1ccccc1 | inactive | – | inactive | inactive | inactive | Activity [8]: inactive
